Active and inactive are the calls of the source.
Key:
Caspase-3 = target: T1, Caspase-3 (Homo sapiens, UniProt P42574); assay type: functional;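 further: Dose-response selectivity test against caspase-3 for candidate inhibitors of sentrin-specific proteases (SENPs)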
T1 sequence (P42574 whole entry): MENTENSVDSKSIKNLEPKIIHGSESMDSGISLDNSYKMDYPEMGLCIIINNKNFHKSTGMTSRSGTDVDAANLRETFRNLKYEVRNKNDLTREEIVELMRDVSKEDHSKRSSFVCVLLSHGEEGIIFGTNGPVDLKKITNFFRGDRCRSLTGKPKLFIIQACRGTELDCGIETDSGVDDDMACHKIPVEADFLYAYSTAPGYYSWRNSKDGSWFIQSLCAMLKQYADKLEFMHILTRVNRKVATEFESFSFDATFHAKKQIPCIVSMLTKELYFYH

[1] = target: T2, Sentrin-specific protease 7 (Homo sapiens, UniProt Q9BQF6); assay type: functional;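 further: Luminescence-based dose-response confirmation of ultra-high-throughput screening hits, measuring inhibition of SENP7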
T2 sequence (Q9BQF6 whole entry): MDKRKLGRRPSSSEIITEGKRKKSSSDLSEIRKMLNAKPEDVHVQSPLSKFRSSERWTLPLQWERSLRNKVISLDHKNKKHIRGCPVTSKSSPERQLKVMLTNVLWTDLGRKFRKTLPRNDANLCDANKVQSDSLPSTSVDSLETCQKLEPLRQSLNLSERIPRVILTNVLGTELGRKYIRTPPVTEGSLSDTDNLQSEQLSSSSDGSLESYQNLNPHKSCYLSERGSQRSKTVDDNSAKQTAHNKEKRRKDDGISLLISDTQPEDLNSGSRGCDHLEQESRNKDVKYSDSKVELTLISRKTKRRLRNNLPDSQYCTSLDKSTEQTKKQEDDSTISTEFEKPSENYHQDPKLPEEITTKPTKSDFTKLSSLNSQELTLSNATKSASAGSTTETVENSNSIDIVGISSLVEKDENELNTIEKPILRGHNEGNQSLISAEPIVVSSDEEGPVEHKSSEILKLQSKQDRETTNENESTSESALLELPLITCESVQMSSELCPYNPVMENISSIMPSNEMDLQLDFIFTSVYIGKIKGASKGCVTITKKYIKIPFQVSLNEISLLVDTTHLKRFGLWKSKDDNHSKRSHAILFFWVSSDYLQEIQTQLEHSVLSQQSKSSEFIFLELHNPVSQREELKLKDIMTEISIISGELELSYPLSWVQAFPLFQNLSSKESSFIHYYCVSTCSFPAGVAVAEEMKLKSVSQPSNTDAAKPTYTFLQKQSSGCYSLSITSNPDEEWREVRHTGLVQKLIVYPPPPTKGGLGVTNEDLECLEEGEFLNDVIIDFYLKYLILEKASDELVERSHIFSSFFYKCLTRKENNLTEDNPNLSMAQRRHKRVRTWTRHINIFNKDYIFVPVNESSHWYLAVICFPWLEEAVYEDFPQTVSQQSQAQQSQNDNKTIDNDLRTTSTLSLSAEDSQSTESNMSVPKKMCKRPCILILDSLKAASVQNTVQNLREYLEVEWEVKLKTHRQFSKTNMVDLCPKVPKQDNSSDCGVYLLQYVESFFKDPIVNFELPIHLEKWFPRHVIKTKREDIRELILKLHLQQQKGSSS

[2] = target: T3, Sentrin-specific protease 8 (Homo sapiens, UniProt Q96LD8); assay type: functional
T3 sequence (Q96LD8 whole entry): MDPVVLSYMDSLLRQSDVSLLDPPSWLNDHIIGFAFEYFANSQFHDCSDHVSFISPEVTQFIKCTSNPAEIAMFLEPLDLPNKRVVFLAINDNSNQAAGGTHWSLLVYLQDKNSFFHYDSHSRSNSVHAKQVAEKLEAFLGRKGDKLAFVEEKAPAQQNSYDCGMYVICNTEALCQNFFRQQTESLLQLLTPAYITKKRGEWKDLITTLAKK

[3] = target: T4, Sentrin-specific protease 6 (Homo sapiens, UniProt Q9GZR1); assay type: functional;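 further: Luminescence-based dose-response confirmatory assay of SENP6 inhibition, following up an ultra-high-throughput screen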
T4 sequence (Q9GZR1 whole entry): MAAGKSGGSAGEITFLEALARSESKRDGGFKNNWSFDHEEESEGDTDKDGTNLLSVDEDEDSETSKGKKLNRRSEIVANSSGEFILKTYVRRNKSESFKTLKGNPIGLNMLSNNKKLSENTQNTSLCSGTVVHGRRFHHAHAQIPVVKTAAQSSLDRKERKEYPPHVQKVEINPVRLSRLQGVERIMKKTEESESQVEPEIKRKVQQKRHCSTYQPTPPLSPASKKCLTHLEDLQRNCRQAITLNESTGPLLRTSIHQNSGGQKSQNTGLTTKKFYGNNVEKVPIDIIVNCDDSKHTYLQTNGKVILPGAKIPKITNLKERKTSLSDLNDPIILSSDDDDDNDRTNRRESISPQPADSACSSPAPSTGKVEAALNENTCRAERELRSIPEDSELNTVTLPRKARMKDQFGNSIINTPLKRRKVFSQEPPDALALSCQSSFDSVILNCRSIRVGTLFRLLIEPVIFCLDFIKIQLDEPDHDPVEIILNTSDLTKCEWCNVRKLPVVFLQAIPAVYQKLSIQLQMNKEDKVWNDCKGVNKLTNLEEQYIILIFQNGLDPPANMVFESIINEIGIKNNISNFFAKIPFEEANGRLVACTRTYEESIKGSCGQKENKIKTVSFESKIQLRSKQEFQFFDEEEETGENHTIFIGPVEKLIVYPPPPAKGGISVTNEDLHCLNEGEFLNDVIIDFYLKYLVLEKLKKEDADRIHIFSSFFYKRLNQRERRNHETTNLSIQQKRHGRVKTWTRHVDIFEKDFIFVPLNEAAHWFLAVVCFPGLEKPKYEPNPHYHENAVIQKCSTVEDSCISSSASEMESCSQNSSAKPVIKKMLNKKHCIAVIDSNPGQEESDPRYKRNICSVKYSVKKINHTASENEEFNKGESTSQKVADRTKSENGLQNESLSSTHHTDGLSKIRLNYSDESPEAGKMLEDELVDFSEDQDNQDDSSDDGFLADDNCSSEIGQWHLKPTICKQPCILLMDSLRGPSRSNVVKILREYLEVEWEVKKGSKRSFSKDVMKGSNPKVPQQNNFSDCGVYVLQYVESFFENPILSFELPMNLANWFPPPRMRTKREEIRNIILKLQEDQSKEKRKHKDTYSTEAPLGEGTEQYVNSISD

[4] = loss of viability in HepG2 cells – cell-based, CellTiter-Glo, cherry-picked, cytotoxicity control for Shn3 inhibitor project, dose response (AID 624134); assay type: functional
[5] = Luminescence Cell-Based Dose Retest to Confirm Inhibitors of Cancer Stem Cells. [Related pubchem assays (depositor defined):AID2717, AID2721]; assay type: functional; conditions: Homo sapiens
[6] = microbe, parasite or virus in culture; assay type: functional; conditions: Mycobacterium tuberculosis
[7] = non-specific 3'UTR reporter inhibition in Clone20-Shn3RL – cell-based, Renilla luciferase, cherry-picked, counter-screen for Shn3 inhibitor project, dose response (AID 624133); assay type: functional
[8] = reduction of Shn3 3'UTR-driven luciferase in osteoblasts – cell-based, Clone20 osteoblasts, firefly luciferase, cherry-picked, dose response (AID 624132); assay type: functional;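 further: firefly luciferase luminescence from reporter carrying the Shn3 3'UTR in osteoblasts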
[9] = viability of PTEN-deleted HCT116 cells – cell-based, HCT116 PTEN knockout, dose response (AID 1047); assay type: functional;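 further: HCT116 colon tumor cells with PTEN knocked out; cells exposed to compound for 60 hours before readout; potency for loss of cell viability measured by luminescence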
[10] = A Cell Based Secondary Assay To Explore Cytotoxicity of Compounds that Sensitize Mycobacterium Tuberculosis to Beta-Lactam Antibiotics.; assay type: functional
[11] = viability of HCT116 lacking mutant beta-catenin – cell-based, human colon tumor, dose response (AID 1045); assay type: functional;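 further: HCT116 colon tumor cells with beta catenin knocked out; cells exposed to compound for 60 hours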
[12] = HIV-1 AD8 envelope cell-cell fusion blockers – cherry-pick, dose response (AID 652062); assay type: functional, cell-based;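 further: luciferase signal from cell-cell fusion driven by HIV-1 clade B AD8 Env; potency is for inhibitors of fusion seen as a drop in luminescence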
[13] = blockers of HIV-1 envelope-mediated cell-cell fusion – cherry-pick, dose response (AID 652057); assay type: functional, cell-based
[14] = blockers of HIV-1 ZM109 envelope-driven cell-cell fusion – HeLa effector, CEM target cells, luciferase, cherry-pick, dose response (AID 652058); assay type: functional, cell-based;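 further: luciferase signal from HIV-1 Env mediated cell-cell fusion of effector and target cells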
[15] = off-target signal loss in HeLa-CEM21 co-culture – HeLa F-luc CTL cells, cherry-picked, counter-screen for HIV-1 Env fusion inhibitor project, dose response (AID 652040); assay type: functional, cell-based;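 further: potency for signal decrease marking cytotoxic or nonspecific inhibition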
[16] = target: T3, Sentrin-specific protease 8; assay type: functional; remark: listed apart in the source
[17] = target: FAD-linked sulfhydryl oxidase ALR (Homo sapiens, UniProt P55789); assay: ALR-catalysed DTT oxidation blockers – biochemical, H2O2 detection, luminescence, cherry-pick, dose response (AID 493248)
[18] = target: T3, Sentrin-specific protease 8; assay type: functional; remark: listed apart in the source
Paired box protein Pax-8 = Paired box protein Pax-8 (Homo sapiens, UniProt Q06710); assay: PAX8 transcriptional activity inhibition in RMG-I – RMG-I cells, luciferase, cherry-pick, dose response (AID 687027); assay type: functional, cell-based;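 further: luciferase reporter driven by Pax8 target thyroperoxidase promoter measured by SteadyGlo luminescence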
[19] = OVCAR-3 cell viability loss – plate reader, dry powder samples, PAX8 inhibitor project, dose response (AID 743044); assay type: functional, cell-based
[20] = OVCAR8 cell viability loss – plate reader, dry powder samples, PAX8 project, dose response (AID 743197); assay type: functional, cell-based; conditions: OVCAR-8

Paired box protein Pax-8, sequence (Q06710 whole entry): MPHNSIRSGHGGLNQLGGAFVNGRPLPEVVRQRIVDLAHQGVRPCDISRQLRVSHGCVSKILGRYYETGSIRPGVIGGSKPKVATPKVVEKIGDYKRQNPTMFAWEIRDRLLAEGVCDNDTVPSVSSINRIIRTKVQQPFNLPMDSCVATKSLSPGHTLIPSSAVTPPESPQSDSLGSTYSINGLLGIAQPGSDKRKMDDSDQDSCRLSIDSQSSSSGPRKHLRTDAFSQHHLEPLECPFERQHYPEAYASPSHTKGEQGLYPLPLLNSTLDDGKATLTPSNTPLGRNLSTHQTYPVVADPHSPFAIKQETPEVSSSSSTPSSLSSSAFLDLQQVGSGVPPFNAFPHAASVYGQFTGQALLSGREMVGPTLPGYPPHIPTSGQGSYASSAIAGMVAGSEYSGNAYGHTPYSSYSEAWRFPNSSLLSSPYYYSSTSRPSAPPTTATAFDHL
FAD-linked sulfhydryl oxidase ALR, sequence (P55789 whole entry): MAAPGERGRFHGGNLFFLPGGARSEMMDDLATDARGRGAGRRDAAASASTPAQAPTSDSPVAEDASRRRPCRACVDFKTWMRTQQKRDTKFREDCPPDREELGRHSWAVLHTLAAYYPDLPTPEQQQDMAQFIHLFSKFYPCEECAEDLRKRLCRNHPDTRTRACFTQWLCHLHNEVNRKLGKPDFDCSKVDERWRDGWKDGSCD

Compound: COC(=O)c1ccc(-c2ccc(F)cc2)nc1C
- IC50 (Caspase-3): 13.2 µM (active)
- IC50 [1]: 8.25 µM (active)
- IC50 [2]: 64.9 µM (active)
- IC50 [3]: 31.9 µM (active)

Compound: CCOc1cc2c(cc1OCC)-n1cccc1C(c1ccc(C(C)C)cc1)NC2 (centres undefined)
- AC50 [4]: 67.7 µM (active)
- AC50 [5]: 11.4 µM (active)
- CC50 [6]: > 40 µM (active)
- AC50 [7]: 4.99 µM (active)
- AC50 [8]: 7.22 µM (active)

Compound: Cc1ccc(C(=O)c2sc3c(c2N)c(=O)[nH]c(=O)n3CCc2ccccc2)cc1
- EC50 [9]: 10.7 µM (active)
- CC50 [10]: 25.1 µM (active)
- EC50 [11]: 9.5 µM (active)

Compound: CCOC(=O)C1(Cc2ccc(Cl)cc2)CCN(C(C)Cc2ccc(O)c(OC)c2)CC1 (centres undefined)
- AC50 [4]: 17.6 µM (active)
- AC50 [7]: 2.65 µM (active)
- AC50 [8]: 1.33 µM (active)

Compound: COc1ccccc1N1CCN(S(=O)(=O)c2ccc3[nH]c(-c4ccccc4)nc3c2)CC1
- CC50 [10]: > 40 µM (active)

Compound: CN(c1ccccc1)S(=O)(=O)c1ccc(Cl)c(C(=O)Nc2nc3ccccc3[nH]2)c1
- AC50 [12]: 5.66 µM (active)
- AC50 [13]: 3.18 µM (active)
- AC50 [14]: 1.6 µM (active)
- AC50 [15]: 5.75 µM (active)

Compound: COc1cccc(C(=O)NC(=S)Nc2ccc(N(C)C)cc2)c1
- IC50 (Caspase-3): 10.7 µM (active)
- IC50 [1]: 6.14 µM (active)
- IC50 [2]: 21 µM (active)
- IC50 [3]: 16.1 µM (active)

Compound: COc1ccc(/C=C2/CCCC(C(=O)C(F)(F)F)=C2O)cc1OC
- CC50 [10]: > 40 µM (active)

Compound: CN(C)c1ccc(NC(=O)Oc2ccccc2)cc1
- IC50 [16]: 78.1 µM (inactive)
- AC50 [17]: 1.88 µM (active)
- IC50 [18]: > 100 µM (inactive)

Compound: O=C(Nc1ccc(S(=O)(=O)N2CCCCC2)cc1)C1CCCN(C(=O)c2ccc(Cl)cc2)C1 (centres undefined)
- CC50 [10]: > 40 µM (active)

Compound: COc1ccc(C(C(=O)NC(C)(C)C)N(CCC(C)C)C(=O)CCC(=O)Nc2cc(C)on2)cc1 (centres undefined)
- AC50 [12]: 22.8 µM (active)
- AC50 [13]: 7.02 µM (active)
- AC50 [14]: 18.1 µM (active)
- AC50 [15]: 16.6 µM (active)

Compound: CC(C)(C)NCCCOc1ccc(Cl)cc1C(C)(C)C
- CC50 [10]: 39.3 µM (active)

Compound: COC(=O)[C@@]1(C)[C@H]2C(=O)N(Cc3ccccc3)C(=O)[C@H]2[C@H]2CN=C(SCc3ccc(C#N)cc3)N21
- AC50 [12]: 0.609 µM (active)
- AC50 [13]: 0.566 µM (active)
- AC50 [14]: 0.785 µM (active)
- AC50 [15]: 1.09 µM (active)

Compound: CCOc1ccccc1Nc1cc(C)nc2ccccc12
- AC50 [4]: 48.6 µM (active)
- AC50 [7]: 5.31 µM (active)
- AC50 [8]: 8.14 µM (active)

Compound: C[C@H](CO)N1C[C@H](C)[C@H](CN(C)C(=O)c2ccncc2)OCc2ccccc2-c2c(n(C)c3ccccc23)C1=O
- AC50 [12]: 33.1 µM (active)
- AC50 [13]: 9.94 µM (active)
- AC50 [14]: 4.23 µM (active)

Compound: O=C(Nc1ccc(F)cc1)N1CC(=O)N2[C@@H](CO)[C@@H](c3ccc(C#Cc4ccc(F)cc4)cc3)[C@@H]2C1
- AC50 (Paired box protein Pax-8): 10.4 µM (active)
- AC50 [19]: 16.2 µM (active)
- AC50 [20]: > 70 µM (inactive)

Compound: C[C@H]1CN([C@@H](C)CO)C(=O)c2c(c3ccccc3n2C)-c2ccccc2CO[C@@H]1CN(C)S(=O)(=O)c1ccsc1
- AC50 (Paired box protein Pax-8): 3.6 µM (active)
- AC50 [19]: 51.1 µM (active)
